# “And” between values parts separate entries of the source, which are not always exact repeats. Identical values can stand only once. “Also recorded” adds a separate entry of the source. Counter-ions that a name gives are not always drawn.
# Legend:
# [1] = Change of urine pH with time after taking basic fuchsine; type: in vivo, human; details: for Urine pH value, Average: average of 9 patients, before drug 6; for Patent's urine pH value: individual patient (vegetarian), hydrochloride
# Method: Therefore, the infected body, which is weakly acidic, is recovered to become weakly basic and this is beneficial to increasing the body's immunity such that Mycobacterium tuberculosis can be inhibited or removed. Because the integration of lysosomes inside macrophage with phagosome cannot be prevented, the bacteria can be removed. The changes in urine pH after taking basic fuchsine is illustrated in Table 2 and FIG. 1:
# Remarks: The urine pH value reached the peak value at 2-3 hours after taking drug, and the peak period can sustain for 3-4 hours, then return to normal at 5-6 hours after taking drug.
# [2] = system: Mycobacterium tuberculosis; experiment: Drug Susceptibility Testing on Lowenstein-Jensen medium; type: cell-based
# Method: Drug Susceptibility Testing
# (II) Culture Method: Lowenstein-Jensen medium (Improved method)
# KH2PO4: 2.4 g; MgSO4.7H2O 0.24 g; magnesium citrate: 0.6 g; asparagine: 3.6 g; glycerin: 12 ml; distilled water: 600 ml; potato starch: 30 g; fresh whole egg liquid: 1000 ml; 2% malachite green solution: 20 ml
# 4. Drug: 2% basic fuchsine aqueous solution: 100 ml
# Add water to KH2PO4, MgSO4.7H2O, magnesium citrate, asparagine and glycerin, dissolve through heating in a boiling water bath, then add potato starch and continue heating in water bath for 30 minutes, stir continuously to form a uniform paste. After cooling to about 60° C., add 1000 ml fresh whole egg liquid and 20 ml 2% malachite green solution, mix thoroughly and then filter by double-layered gauze, then dispensed into test tube with screw cap. 7 ml of the prepared solution is added to each test tube, then add the 2% basic fuchsine solution according to a specific proportion into the test tube (see Table 3 for the adding amount), then place the test tube into the 85% steam incubator for 90 minutes, cooling to 60° C. or below and then place the test tube inclinedly into the biological safety cabinet (also called purification station), thereby the culture medium is cooled to solidify and form an incline surface. Put 10^−2/ml living bacilli solution of Mycobacterium tuberculosis to the incline surface of the culture medium. The living bacilli solution for each tube is 0.1 ml. The concentration of bacilli solution in the culture medium is 10^−3 mg/ml. Place in Digital Biochemical Incubator to culture. After culture for 5 weeks, no bacteria growth refers to drug susceptibility, continue bacteria growth refers to drug non-susceptibility (See Table 4 for testing results).
# M. tuberculosis = experiment: Basic Fuchsine for treatment of Tuberculosis (patients); type: in vivo, human; details: for Drug treatment after 1 month (TB status, symptoms): individual TB patient, capsule 500 mg (basic fuchsine:ground rice 3:2), 1-2 capsule/day oral, hydrochloride
# Method: Basic Fuchsine for treatment of Tuberculosis
# Dosage for patient: Capsule, 500 mg/capsule, where the weight ratio of basic fuchsine to ground rice is 3:2, each patient takes 1˜2 capsule/day.
# Method of administration: Every morning, before breakfast, take the capsule, three month as one treatment course, see Table 5 for patients' records, see Table 6 for treatment results.
# 1. All patients were diagnosis and confirmed by standard TB hospital or TB prevention and treatment center, and all patients encountered disease recurrence after conventional standard drug treatment.
# 3. Before drug treatment with basic fuchsine drug, all patients have obvious symptoms: body weakness, discomfort, fever, cough, night sweat, ascites, blood spitting, blood vomiting, etc. (skeletal TB patient experience pain, some experience amenorrhea).
# Leprosy ulcers = experiment: Basic Fuchsine for Treatment of Leprosy (patients); type: in vivo, human; details: individual leprosy ulcer patient, treatment method External
# blood cells = details: human, in vivo, po
# Text: After taking basic fuchsine, the basic fuchsine activity over time can be observed through the blood phenomenon at different times.
# Healthy individual as normal subject for observation
# Patient recovered from the disease who volunteer to testing subject as volunteer subject
# Binocular microscope xsp-12G model
# Wright-Giemsa stain solution (available in the market)
# Phosphate buffer (available in the market)
# Obtain peripheral blood smear from normal subject and volunteer subject (normal control blood film, standby use)
# Obtain peripheral blood smear from volunteer subject at different time after taking fuchsine (oral fuchsine blood film, standby use)
# After the last blood sampling is complete, carrying staining together with the blood film before taking fuchsine orally of volunteer subject and the peripheral blood film of normal subject
# V. observe oral fuchsine blood film under microscope with 100× objective lens (oil immersion) and 12.5× eyepiece, real object is viewed under magnification at 1250 times and the results are shown in Table 3.
# [3] = Toxicity Test of Basic Fuchsine in guinea pigs; details: guinea pigs, 8, 6 and 4 mg/kg body weight/d, once per day, 21 days
# Text: Materials: 24 white guinea pigs, purchased from Shenyang Pharmaceutical University, regular feeding; Basic fuchsine, from Tianjin Ju Hua Chemical Company Limited.
# Matching and grouping of experimental animals: randomly divided into 4 groups (each group includes 6 counts, equal number of male and female), namely, control, high, medium, low fuchsine dosage group.
# Method of administration: For each guinea pig, administered one time per day at a fixed time in the morning, the dosage for high, medium, low fuchsine dosage group are 8 mg/kg body weight/d, 6 mg/kg body weight/d, and 4 mg/kg body weight/d respectively; the drug administration period is 21 days, observe 3˜4 times per day, observe the guinea pig by spirit condition, appetite, gloss level of skin and hairs, physical condition, alertness and ability to escape.
smiles,measurement,setting,value
"Cc1cc(C(=C2C=CC(=N)C=C2)c2ccc(N)cc2)ccc1N [basic fuchsine, rosaniline hydrochloride]",Time at which urine pH value reached the peak value,[1]; after taking drug,2-3 hours
same,Time of return of urine pH to normal,[1]; after taking drug,5-6 hours
same,Time the urine pH peak period can sustain,[1]; after taking drug,3-4 hours
same,"Urine pH value, Average",[1]; After drug 1 h,6.5
same,"Urine pH value, Average",[1]; After drug 2 h,7
same,"Urine pH value, Average",[1]; After drug 3 h,6.5
same,"Urine pH value, Average",[1]; After drug 4 h,6.5
same,"Urine pH value, Average",[1]; After drug 5 h,6
same,"Urine pH value, Average",[1]; After drug 6 h,6
same,Patent's urine pH value,[1]; After drug 1 h,6 (2×) and 6.5 (5×) and 7 (2×)
same,Patent's urine pH value,[1]; After drug 2 h,6.5 (2×) and 7 (5×) and 7.5 (2×)
same,Patent's urine pH value,[1]; After drug 3 h,6 (2×) and 6.5 (5×) and 7 (2×)
same,Patent's urine pH value,[1]; After drug 4 h,6 (2×) and 6.5 (5×) and 7 (2×)
same,Patent's urine pH value,[1]; After drug 5 h,5.5 (2×) and 6 (5×) and 6.5 (2×)
same,Patent's urine pH value,[1]; After drug 6 h,5.5 (2×) and 6 (5×) and 6.5 (2×)
same,Testing results (bacteria growth),"[2]; Tube 1, 0.7 ml 2% basic fuchsine solution, final dilution factor 500, 5 weeks at 36 C",Grow
same,Testing results (bacteria growth),"[2]; Tube 2, 0.525 ml 2% basic fuchsine solution, final dilution factor 750, 5 weeks at 36 C",Grow
same,Testing results (bacteria growth),"[2]; Tube 3, 0.35 ml 2% basic fuchsine solution, final dilution factor 1000, 5 weeks at 36 C",Grow
same,M. tuberculosis (acid-fast bacilli) in sputum after taking basic fuchsine for one month,M. tuberculosis; TB patients,no M. tuberculosis is found in sputum
same,Patients' blood test for liver and kidney after taking basic fuchsine,M. tuberculosis; TB patients,normal
same,TB symptoms after taking basic fuchsine for three months,M. tuberculosis; TB patients,TB symptoms are eliminated
same,X-ray after taking basic fuchsine for six months,M. tuberculosis; TB patients,recovery are confirmed through X-ray
same,Adverse reactions / side effect during the course of treatment,M. tuberculosis; all cases,no side effect is observed in all cases
same,"Drug treatment after 1 month (TB status, symptoms)",M. tuberculosis; 1 capsule/day,TB Improved (−); also recorded: Improved TB (−)
same,"Drug treatment after 1 month (TB status, symptoms)",M. tuberculosis; 2 capsule/day,Pain reduced
same,Symptoms after taking basic fuchsine for one month,M. tuberculosis; majority of TB patients,Symptoms are significantly reduces
same,Liver or kidney damage,M. tuberculosis; patients taking drug for more than two years,no liver or kidney damages is observed
same,Recurrence,M. tuberculosis; patients who are recovered,no single occurrence of recurrence
same,Remarks (outcome),Leprosy ulcers,"Absorbed,"
same,Time remained inside the cell after absorption into blood,blood cells,2 to 4 h
same,"Observation of spirit condition, appetite, skin and hairs, physical condition, alertness, ability to escape",[3],No changes is observed

# Source: patent publication US9782366B2, “Drug for killing acid-fast (red) bacillus” (priority 2013, dated 2017)
